# Results taken from patent US20080003438A1, “Heterocyclic siloxanes for use in biocidal coatings and materials” (Auburn University, priority 2002, published 2008).
# Experiments:
# [1] = Stability test during dry storage of coated cotton samples; type: physicochemical
# Method: A stability test during dry storage was also conducted on cotton samples coated with 3-triethoxysilylpropyl-5,5-dimethylhydantoin. One half of the samples were coated in a bath containing 8% of the 3-triethoxysilylpropyl-5,5-dimethylhydantoin in 50% ethanol in water solution. The other half were treated in the same manner except that KSCN was added to the treatment bath as described above. The chlorination conditions and analytical method of measuring chlorine loadings were the same as discussed above. The samples were stored in plastic bags at ambient temperature; the bags were not air-tight. The average chlorine loading for the samples treated in the presence of KSCN declined from 0.776% to 0.680% over a period of 50 days. For the samples not treated in the presence of KSCN, the decline was from 0.620% to 0.540% over the same 50 day period. It can be concluded that the coated cotton samples were fairly stable to loss of chlorine in dry storage.
# [2] = Chlorine loading of coated, chlorinated surfaces by iodometric/thiosulfate titration; type: physicochemical; details: for average chlorine loading on the swatches: 10% CLOROX 30 min; for chlorine content: chlorinated in household washing machine; for chlorine bound to hard surface: 10% CLOROX
# Method: Swatches of Style 400 Bleached 100% Cotton Print Cloth (Testfabrics, Inc.) were treated with 3-triethoxysilylpropyl-5,5-dimethylhydantoin, prepared as described in Example 1, in the following manner. A treatment bath was prepared containing 5.0 g of 3-triethoxysilylpropyl-5,5-dimethylhydantoin, 3.0 g of potassium thiocyanate, 50 mL of ethanol, and 50 mL of water. After 1 hour of equilibration of the bath mixture, the cotton swatches were soaked in the bath for 10 min. After partially drying in air at ambient temperature, the swatches were cured for 1 hour at 95° C. The swatches were then soaked in a 0.5% liquid detergent solution for 15 min, rinsed with tap water, and allowed to dry in air at ambient temperature. […] The swatches were stored in a vacuum desiccator until use.
# The siloxane polymer described above was coated onto 100% cotton fabric. This was accomplished by soaking swatches of the material for about 2 minutes at ambient temperature in a bath containing 5 g of the polysiloxane, 70 mL of ethanol, and 40 mL of water. The swatches were cured at 130° C. in air for 20 minutes, then soaked in 1.5% liquid detergent for 15 minutes at ambient temperature, and then rinsed thoroughly with water. […] An iodometric/thiosulfate titration indicated a chlorine loading on the cotton material of about 0.42%.
# Finally, a wash test was performed on swatches of cotton containing the monomer 3-triethoxysilylpropyl-5,5-dimethylhydantoin coating and the polysiloxane coating, each chlorinated and unchlorinated, for comparison purposes. Two treatment baths were prepared, one containing an 8% solution of 3-triethoxysilylpropyl-5,5-dimethylhydantoin in a 50% solution of ethanol in water, the other containing an 8% solution of siloxane polymer prepared as described above in a 66.7% solution of ethanol in water. Identical cotton swatches were soaked in the two baths for 2.5 minutes at ambient temperature, cured in air at 130° C. for 20 minutes, soaked in 1.5% liquid detergent at ambient temperature for 15 minutes, rinsed thoroughly with water, and dried in air at 50° C. for 30 minutes. Then one-half of the swatches of each type were chlorinated by soaking them in 5% CLOROX at ambient temperature for 45 minutes. These chlorinated samples were rinsed thoroughly with water and dried in air at 50° C. for 30 minutes to remove all occluded free chlorine. Iodometric/thiosulfate titrations were performed on representative samples to determine initial chlorine loadings. The average chlorine loading for the silane monomer-coated samples was 0.61%; for the siloxane polymer-coated samples, the average chlorine loading was 0.40%. Then all types of coated swatches were subjected to laundry washing cycles using AATCC Test Method 61 (Test 2A Procedure). Samples were evaluated after 5, 10, and 50 washing cycles for retention of the coatings. Those samples not chlorinated before washing were chlorinated by the procedure described above in order to assess how much chlorine could be loaded after variable numbers of washing cycles. Those chlorinated before washing were divided into two groups with half being assessed for chlorine loading without rechlorination, the other half being rechlorinated and then assessed for chlorine loading. Three observations are clearly evident from the data in Table 3. First, both the silane and the siloxane coatings are partially lost upon successive washings. Second, prechlorination reduces the rate of loss, probably due to increasing the hydrophobicity of the surface, thus reducing the rate of hydrolysis loss of the siloxane coatings. Third, the siloxane coating, which is not chlorinated to as high a level as the silane one upon initial chlorination, is lost at a slower rate than is the silane coating. For all of the coatings, at least partial biocidal efficacy would be regenerated upon rechlorination after 50 washing cycles. […]
smiles,measurement,setting,value
"CCO[Si](CCCN1C(=O)NC(C)(C)C1=O)(OCC)OCC [3-triethoxysilylpropyl-5,5-dimethylhydantoin]",average chlorine loading,"[1]; cotton not treated in presence of KSCN, after 50 days in plastic bags at ambient temperature",0.540%
same,average chlorine loading,"[1]; cotton not treated in presence of KSCN, start of dry storage",0.620%
same,average chlorine loading,"[1]; cotton treated in presence of KSCN, after 50 days in plastic bags at ambient temperature",0.680%
same,average chlorine loading,"[1]; cotton treated in presence of KSCN, start of dry storage",0.776%
same,chlorine on hard surface,[2]; PVC (Example 12),4.1 μg per cm^2
same,average initial chlorine loading before washing,"[2]; cotton, 8% treatment bath, cured 130° C. 20 min, 5% CLOROX 45 minutes",0.61%
same,average chlorine loading on the swatches,"[2]; cotton, KSCN in treatment bath",0.61±0.14%
same,chlorine content,[2]; cotton,approximately 4000 ppm Cl^+
same,average chlorine loading on the swatches,"[2]; cotton, without KSCN",0.49±0.07%
same,chlorine bound to hard surface,[2]; marble tile,6.9 μg Cl^+ per square cm
same,chlorine on hard surface,[2]; marble tiles (Example 12),6.9 μg per cm^2
same,chlorine bound to hard surface,[2]; porcelain tile,3.3 μg Cl^+ per square cm
same,chlorine concentration on soft surface,[2]; rayon fabrics (Example 12),4000 ppm
same,chlorine content,[2]; sponge slabs,1000-2000 ppm
same,chlorine concentration on soft surface,[2]; synthetic fibers (Example 12),approximately 800 ppm
